Test results reported in patent publication US10968214B2, “KRas G12C inhibitors” (Eli Lilly and Company, priority 2018, dated 2021).
Like-named read-outs stand apart in the source and are kept apart here.

Columns and labels:
[1] = test system: H358; assay: CellTiterGlo Cell Proliferation Assay, H358; assay type: cell-based; conditions: Homo sapiens, NCI-H358, KRas G12C, Lung, 96 hr
Experimental: (§1) A panel of tumor cell lines harboring KRas G12C or other KRas mutations are collected (Table 6). All cell lines are from ATCC or other sources indicated.
(§2) Typically cells are cultured in RPMI1640 or Dulbecco's modified Eagle's medium (DMEM, GIBCO) supplemented with 10% FBS (GIBCO, Invitrogen). For 2D culture cells (4×10^3/well) maintained in growth medium described above, are plated onto 96 well tissue culture plates Corning® Cat. 3603) a day before the treatment. For 3D culture 8000 cells/well are seeded onto 96 well ultra-low attachment tissue culture plates (Corning, #3474). The cells are treated compound for 96 hr, and then are analyzed for viability using the CellTiterGlo® Luminescent Cell Viability Assay® (Promega #G7572 for 2D and Promega #G9683 for 3D cultures) according to manufacturer's instructions and an EnVision™ plate reader. Nonlinear regression and sigmoidal dose-response curves are used to calculate the half maximal inhibitory concentration (IC50) with GraphPad Prism 4® software.

[2] = test system: H23; assay: CellTiterGlo Cell Proliferation Assay, H23; assay type: cell-based; conditions: Homo sapiens, NCI-H23, KRas G12C, Lung, 96 hr
Experimental: as §1, §2

[3] = test system: H2122; assay: CellTiterGlo Cell Proliferation Assay, H2122; assay type: cell-based; conditions: Homo sapiens, NCI-H2122, KRas G12C, Lung, 96 hr
Experimental: as §1, §2

[4] = test system: HCC-44; assay: CellTiterGlo Cell Proliferation Assay, HCC-44; assay type: cell-based; conditions: Homo sapiens, HCC44, KRas G12C, Lung, 96 hr, read-out: IC50 (μM) in 2 D cell proliferation
Experimental: as §1, §2

[5] = test system: A427; assay: CellTiterGlo Cell Proliferation Assay, A427; assay type: cell-based; conditions: Homo sapiens, A-427, KRas G12D, lung, 96 hr
Experimental: as §1, §2

[6] = test system: H460; assay: CellTiterGlo Cell Proliferation Assay, H460; assay type: cell-based; conditions: Homo sapiens, NCI-H460, KRas Q61H, lung, 96 hr
Experimental: as §1, §2

[7] = test system: SW837; assay: Combination 4 day growth assay (Cell TiterGlo), SW837; assay type: cell-based; conditions: Homo sapiens, SW837, 96 h, single treatment, read-out: Absolute IC50
Experimental: Cell lines for this study are obtained from ATCC and grown under ATCC recommended conditions, except for LXFA-983L, which is obtained from Oncotest/Charles Rivers Laboratories, Wilmington, Mass. and D122-96, which is obtained from L. Eisenbach (Weizman Institute of Science, Rehovot, Israel)—both grown under recommended conditions. […] The proliferation assay is performed as a 4 day growth assay using Cell TiterGlo® as the readout. Briefly, cells are plated in 96-well cell culture plates and allowed to adhere overnight at 37° C. The following day, cells are treated with compounds, either single treatments or combination treatments. First, the testing compounds are serially diluted in DMSO, followed by dilution into media as a 5× concentration with 1% DMSO, and finally added to cells in media to dilute to 1×. The cells are incubated at 37° C. for 4 more days. At the end of the incubation period, Cell TiterGlo® reagent is mixed and added to the wells. After 10 minutes, the luminescence is read by a Perkin Elmer Envision instrument. Absolute IC50 values generated by a 4-parameter logistics model for the single and combination treatments are generated, followed by combination indexes for each combination treatment and cell line. The combination IC50 values are adjusted based on the total concentration of each compound when added together. […] The combination index (CI) measures the degree to which the potency of a combination therapy differs from the expected-if-additive potency and is based on the Loewe definition of additivity.
[formula] Where • CAy and CBy are the concentrations of therapies A and B that produce an effect, y, when given in combination • ICAy and ICBy are the concentrations of A and B that produce an effect, y, when given individually The biological interpretation of the combination index is as follows: synergistic if the combination index <0.5, additive if the combination index is between 0.5 and 2, and antagonistic if the combination index is >2.

[8] = test system: H358 xenograft; assay: Anti-tumor growth activity, lung cancer H358 xenograft mouse model; assay type: in vivo; conditions: for Tumor Growth Inhibition (%) or Regression (−%): 28 Day, negative = regression
Experimental: To evaluate in vivo target inhibition and anti-tumor efficacy of a compound, Human lung cancer cells, H358 or H2122 are implanted into nude mice xenograft tumor models. Either H358 or H2122 cells (10×10^6 in a 1:1 Matrigel® mix, 0.2 mL total volume) are implanted by subcutaneous injection in hind leg of nude female mice (Harlan Laboratories). A total of 5 mice each group are used for efficacy study, and a total of 3-4 mice each group are used for target engagement and PD study. Treatment is initiated with oral administration (gavage) of a test compound or vehicle (20% Captisol®, 25 mM phosphate, pH 2.0 in 0.2 mL volume when the tumor size reaches approximately […]. Tumor growth and body weight are monitored over time to evaluate efficacy and signs of toxicity. Bidimensional measurements of tumors are performed twice a week and tumor volumes are calculated based on mid-axis length and mid-axis width. Tumor volume data are transformed to a log scale to equalize variance across time and treatment groups. The log volume data are analyzed with a two-way repeated measures analysis of variance by time and treatment using the mixed procedures in SAS software (version 8.2). The correlation model for the repeated measures is spatial power. Treated groups are compared to the control group at each time point. The mixed procedure is also used separately for each treatment group to calculate adjusted means and standard errors at each time point. Both analyses account for the autocorrelation within each animal. The adjusted means and standard errors are plotted for each treatment group versus time.
H358 lung tumor cells (10×10^6) are implanted by subcutaneous injection in hind leg of nude female mice (Taconic Biosciences).

[9] = test system: H1373 xenograft; assay: Anti-tumor growth activity, H1373 lung xenograft; assay type: in vivo; conditions: 28 Day, negative = regression
[10] = test system: H2030 xenograft; assay: Anti-tumor growth activity, H2030 lung xenograft; assay type: in vivo; conditions: 28 Day, negative = regression
[11] = test system: SW1463 xenograft; assay: Anti-tumor growth activity, SW1463 colorectal xenograft; assay type: in vivo; conditions: for Tumor Growth Inhibition (%) or Regression (−%): 28 Day, negative = regression
[12] = read-out: IC50 (μM) in 2 D cell proliferation
[13] = read-out: IC50 (μM) in 3 D spheroid cell proliferation

C=CC(=O)N1CCN(c2ncnc3c(F)c(-c4ccc(F)c5sc(N)nc45)c(Cl)cc23)CC1 [Example 1, 1-{4-[7-(2-Amino-7-fluoro-1,3-benzothiazol-4-yl)-6-chloro-8-fluoroquinazolin-4-yl]piperazin-1-yl}prop-2-en-1-one]
IC50 [1, 12]: 0.041 µM | IC50 [1, 13]: 0.026 µM | IC50 [2, 12]: 0.08 µM | IC50 [2, 13]: 0.031 µM | IC50 [3, 12]: 0.187 µM | IC50 [3, 13]: 0.017 µM | IC50 [4]: 0.221 µM | IC50 [5, 12]: 10.1 µM | IC50 [5, 13]: 18.6 µM | IC50 [6, 12]: 11.6 µM | IC50 [6, 13]: 6.07 µM | IC50 [7]: 0.101 µM | Tumor Growth Inhibition (%) or Regression (−%) ([8]; H358 Lung, 10 mg/kg BID, oral): −1.98% | Tumor Growth Inhibition (%) or Regression (−%) ([8]; H358 Lung, 10 mg/kg QD, oral): 42.7% | Tumor Growth Inhibition (%) or Regression (−%) ([8]; H358 Lung, 30 mg/kg BID, oral): −74.35% | Tumor Growth Inhibition (%) or Regression (−%) ([8]; H358 Lung, 30 mg/kg QD, oral): −33.98% | In Vivo Anti-Tumor Activities ([8]; H358 Lung, Example 1 30 mg/kg QDx28): −33.4 | animal body weight loss ([8]; H358 xenograft mice, 10 or 30 mg/kg once or twice daily for 28 days, oral): No significant animal body weight loss was observed | Tumor Growth Inhibition (%) or Regression (−%) ([9]; 15 mg/kg BID): −60% | Tumor Growth Inhibition (%) or Regression (−%) ([9]; 30 mg/kg BID): −71.6% | Tumor Growth Inhibition (%) or Regression (−%) ([9]; 30 mg/kg QD): −52.4% | Tumor Growth Inhibition (%) or Regression (−%) ([10]; 15 mg/kg BID): 82% | Tumor Growth Inhibition (%) or Regression (−%) ([10]; 30 mg/kg BID): 91.9% | Tumor Growth Inhibition (%) or Regression (−%) ([10]; 30 mg/kg QD): 75.1% | Tumor Growth Inhibition (%) or Regression (−%) ([11]; 15 mg/kg BID): −27% | Tumor Growth Inhibition (%) or Regression (−%) ([11]; 30 mg/kg BID): −47.9% | Tumor Growth Inhibition (%) or Regression (−%) ([11]; 30 mg/kg QD): −13.9% | In Vivo Anti-Tumor Activities ([11]; Example 1 30 mg/kg QDx28): −21.4
